Reference: patent US7230029B2, “Fatty acid analogues for the treatment of proliferative skin disorders” (Thia Medica AS, priority 2000, dated 2007)

Legend:
[1] = system: CD36/FAT; assay: CD36/FAT mRNA expression in NHK treated with PPAR activators and TTA; type: cell-based, human; details: NHK treated over a period of three days
Procedure: (§1) Normal adult human epidermal keratinocytes were isolated from human skin obtained after plastic surgery. First passage keratinocytes were grown in serum-free KGM (GIBCO BRL/Life Technologies, Inc.) and replated in 75 cm^2 culture flask or in 96-well microtiterplates preheated at 37° C. at a density of 3500 cells/well. Cells were incubated in a humidified atmosphere of 5% CO2 at 37° C. When cells reached 40% confluence they were treated with growth medium containing selective PPAR ligands (either alone or in combinations as indicated), tetradecylthioacetic acid (TTA) or 1,2 mM Ca^2+. Wy14643 was obtained from Calbiochem, BRL49653 was kindly provided by J. Fleckner, Novo Nordisk), L165041 was kindly provided by D. E. Moller (Merck Research Laboratories, Rahway, N.J.). TTA was manufactured in accordance with example 1. Medium was changed every day. For differentiation, keratinocytes at 40% confluence (day 0) were treated with 1,2 mM CaCl2. Medium was changed every other day. HaCaT cells were obtained from L. Aarenstrup (Danish Cancer Society, Denmark). HaCaT cells were cultured in Dulbecco's modified Eagle's Medium (DMEM) with 10% fetal calf serum (FCS) and antibiotics (100 u/ml penicillin, 1 mg/ml streptomycin sulphate) in a humidified atmosphere of 5% CO2 at 37° C. Medium was changed every other day.
(§2) To evaluate how TTA and the various PPAR activators affected expression of a known PPAR responsive gene and differentiation of keratinocytes, we first measured the mRNA levels of CD36/FAT and the two differentiation markers, Inv and Tg-1 in NHK treated with PPAR selective activators and TTA over a period of three days (FIG. 1a).

[2] = system: Inv; assay: Inv protein expression in NHK by Western blotting; type: cell-based, human
Procedure: as §1

[3] = system: human keratinocytes; assay: Keratinocyte differentiation marker gene expression (summary statements); type: cell-based
Procedure: In the present study we have in detail analyzed the expression of the PPARs during ex vivo differentiation of human keratinocytes, in isolated basal and suprabasal cells, and in sections of human skin. […] All three PPAR subtype selective ligands either alone or in combination only modestly effected keratinocyte proliferation.
as §1, with “HaCaT cells were cultured in Dulbecco's modified Eagle's Medium (DMEM) with 10% fetal calf serum (FCS) and antibiotics (100 u/ml penicillin, 1 mg/ml streptomycin sulphate) in a humidified atmosphere of 5% CO2 at 37° C. Medium was changed every other day.” left out

[4] = system: Inv; assay: Inv mRNA expression in NHK (RT-PCR); type: cell-based, human; details: NHK treated over a period of three days
Procedure: as §1, with “HaCaT cells were cultured in Dulbecco's modified Eagle's Medium (DMEM) with 10% fetal calf serum (FCS) and antibiotics (100 u/ml penicillin, 1 mg/ml streptomycin sulphate) in a humidified atmosphere of 5% CO2 at 37° C. Medium was changed every other day.” left out
as §2

[5] = system: Inv; assay: Inv expression by indirect immunofluorescence microscopy; type: cell-based, human
From the text: (§3) In addition, expression of Inv and Tg-1 was examined by indirect immunofluorescence microscopy (FIG. 3).

[6] = system: NHK cells; assay: Viability/proliferation by modified MTT assay; type: cell-based, human
Procedure: as §1, with “HaCaT cells were obtained from L. Aarenstrup (Danish Cancer Society, Denmark). HaCaT cells were cultured in Dulbecco's modified Eagle's Medium (DMEM) with 10% fetal calf serum (FCS) and antibiotics (100 u/ml penicillin, 1 mg/ml streptomycin sulphate) in a humidified atmosphere of 5% CO2 at 37° C. Medium was changed every other day.” left out
Viability/proliferation was measured by a modification of the MTT assay introduced by Mosmann T (J Immunol Methods 65:55–63, 1983). […] The amount of formazan was quantified in an ELISA-reader at 540 nm. […]
(§4) Differentiation of keratinocytes is correlated with an increase in cell size. […] In parallel the expression of Tg-1 was monitored using an ELISA-based assay (FIG. 3b).

[7] = system: Tg-1; assay: Tg-1 expression by indirect immunofluorescence microscopy; type: cell-based, human
From the text: as §3

[8] = system: transglutaminase type 1 (Tg-1); assay: Tg-1 expression by ELISA; type: cell-based, human; details: normalized to cell number
Procedure: as §1, with “HaCaT cells were obtained from L. Aarenstrup (Danish Cancer Society, Denmark). HaCaT cells were cultured in Dulbecco's modified Eagle's Medium (DMEM) with 10% fetal calf serum (FCS) and antibiotics (100 u/ml penicillin, 1 mg/ml streptomycin sulphate) in a humidified atmosphere of 5% CO2 at 37° C. Medium was changed every other day.” left out
Cells were subjected to two freeze-thaw cycles and transglutaminase type 1 (Tg-1) was determined by ELISA. […] The amount of transglutaminase was measured by quantifying the OPD reaction with an ELISA-reader at 490 nm and subtracting background at 650 nm. […]
as §4

| Tg-1 expression [8] | Compound | expression of CD36/FAT mRNA [1] | Inv protein expression [2] | keratinocyte differentiation marker gene expression [3] | Inv mRNA expression [4] | Inv expression [5] | inhibition of NHK cell proliferation [6] | Tg-1 expression [7] |
| --- | --- | --- | --- | --- | --- | --- | --- | --- |
|  | CCCc1c(OCCCOc2ccc(OCC(=O)O)cc2)ccc(C(C)=O)c1O [L165041] | induced a significant dose-dependent expression of CD36 | dose-dependent induction of Inv protein | induced in a dose-dependent manner expression of involucrin | dose-dependent induction of Inv mRNA expression | in a dose-dependent manner induced Inv expression |  |  |
|  | Cc1cccc(Nc2cc(Cl)nc(SCC(=O)O)n2)c1C [Wy14643] | induced expression of CD36/FAT |  |  | modest induction of Inv mRNA expression |  |  |  |
| significantly induced Tg-1 expression | [Ca+2].[Cl-].[Cl-] [CaCl2] | did not induce expression of CD36/FAT |  |  |  | comparable levels of expression | only marginal | comparable levels of expression |
